Data taken from ChEMBL document CHEMBL4715854, “Discovery of Roblitinib (FGF401) as a Reversible-Covalent Inhibitor of the Kinase Activity of Fibroblast Growth Factor Receptor 4” (J Med Chem, 2020).
One block for each molecule: values may come before it.

Key:
[1] = Drug absorption in Sprague-Dawley rat at 10 to 100 mg/kg, po qd for 10 days by LC-MS/MS analysis; assay type: ADME, organism-based; settings: in vivo, 240 h, dose 10-100 mg/kg, time 10 day
[2] = Tmax in Sprague-Dawley rat at 10 to 100 mg/kg, po qd for 10 days by LC-MS/MS analysis; assay type: ADME, organism-based; settings: in vivo, dose 10-100 mg/kg, time 10 day
[3] = AUC (0 to 24 hrs) in Crl:CD (SD) rat at 30 mg/kg, po qd treated for 1 day measured by LC-MS/MS analysis; assay type: ADME, organism-based; design: route oral, time 1 day, dose 30 mg/kg; settings: in vivo
[4] = AUC (0 to 24 hrs) in Crl:CD (SD) rat at 100 mg/kg, po qd treated for 1 day measured by LC-MS/MS analysis; assay type: ADME, organism-based; design: route oral, time 1 day, dose 100 mg/kg; settings: in vivo
[5] = AUC (0 to 24 hrs) in Crl:CD (SD) rat at 10 mg/kg, po qd treated for 1 day measured by LC-MS/MS analysis; assay type: ADME, organism-based; design: route oral, dose 10 mg/kg, time 1 day; settings: in vivo
[6] = AUC (0 to 12 hrs) in C57BL/6 mouse at 30 mg/kg, po BID treated for 6 days measured by LC-MS/MS analysis; assay type: ADME, organism-based; design: route oral, dose 30 mg/kg, time 6 day; settings: in vivo
[7] = Oral bioavailability in Beagle dog at 0.3 mg/kg by LC-MS/MS analysis; assay type: ADME, organism-based, Canis lupus familiaris; settings: in vivo, 0.3 mg/kg
[8] = AUC in Beagle dog at 0.1 mg/kg, iv by LC-MS/MS analysis; assay type: ADME, organism-based, Canis lupus familiaris; design: dose 0.1 mg/kg; settings: in vivo
[9] = AUC in Beagle dog at 0.3 mg/kg, po by LC-MS/MS analysis; assay type: ADME, organism-based, Canis lupus familiaris; design: dose 0.3 mg/kg; settings: in vivo
[10] = Half-life in Beagle dog at 0.1 mg/kg, iv or 0.3 mg/kg, po by LC-MS/MS analysis; assay type: ADME, organism-based, Canis lupus familiaris; settings: in vivo
[11] = Volume of distribution at steady state in Beagle dog at 0.1 mg/kg, iv or 0.3 mg/kg, po by LC-MS/MS analysis; assay type: ADME, organism-based, Canis lupus familiaris; settings: in vivo, read-out: Vdss
[12] = Half-life in C57BL/6 mouse at 0.5 mg/kg, iv measured up to 24 hrs by LC-MS/MS analysis; assay type: ADME, organism-based; settings: in vivo
[13] = AUC in C57BL/6 mouse at 0.5 mg/kg, iv measured up to 24 hrs by LC-MS/MS analysis; assay type: ADME, organism-based; design: route intravenous, dose 0.5 mg/kg, time <=24; settings: in vivo
[14] = Volume of distribution at steady state in C57BL/6 mouse at 0.5 mg/kg, iv measured up to 24 hrs by LC-MS/MS analysis; assay type: ADME, organism-based; settings: in vivo, read-out: Vdss
[15] = Clearance in C57BL/6 mouse at 0.5 mg/kg, iv measured up to 24 hrs by LC-MS/MS analysis; assay type: ADME, organism-based; settings: in vivo
[16] = Half-life in Crl:CD (SD) rat at 1 mg/kg, iv or 3 mg/kg, po measured upto 24 hrs by LC-MS/MS analysis; assay type: ADME, organism-based; settings: in vivo
[17] = Volume of distribution at steady state in Crl:CD (SD) rat at 1 mg/kg, iv or 3 mg/kg, po measured upto 24 hrs by LC-MS/MS analysis; assay type: ADME, organism-based; settings: in vivo, read-out: Vdss
[18] = Clearance in Crl:CD (SD) rat at 1 mg/kg, iv or 3 mg/kg, po measured up to 24 hrs by LC-MS/MS analysis; assay type: ADME, organism-based; settings: in vivo
[19] = Oral bioavailability in Crl:CD (SD) rat at 3 mg/kg measured upto 24 hrs by LC-MS/MS analysis; assay type: ADME, organism-based; settings: in vivo
[20] = Thermodynamic solubility of compound in phosphate buffer at pH 6.8 measured after 15 mins by shake-flask method based LC-HRMS analysis; assay type: physicochemical; settings: read-out: Therm_solubility
[21] = Plasma concentration in mouse xenografted with human Huh7 cells at 30 mg/kg, po BID administered for 14 days measured 12 hrs post-last dose; assay type: ADME, organism-based; settings: time 14 day
[22] = Dose normalized AUC in Crl:CD (SD) rat at 3 mg/kg, po measured up to 24 hrs by LC-MS/MS analysis; assay type: ADME, organism-based; settings: in vivo
[23] = Dose normalized AUC in Crl:CD (SD) rat at 1 mg/kg, iv measured up to 24 hrs by LC-MS/MS analysis; assay type: ADME, organism-based; settings: in vivo
[24] = Permeability of the compound in human Caco-2 cells assessed as compound recovery at 10 uM measured after 2 hrs by LC/MS/MS analysis; assay type: ADME, cell-based; settings: read-out: Drug recovery
[25] = Drug metabolism in rat liver microsome assessed as reduction of aldehyde group at 10 mM measured after 15 mins in presence of NADPH by LC-MS analysis; assay type: ADME; settings: microsomes, 10000 µM
[26] = Drug metabolism in human liver microsome assessed as reduction of aldehyde group at 10 mM measured after 15 mins in presence of NADPH by LC-MS analysis; assay type: ADME; settings: microsomes, 10000 µM
[27] = Oral bioavailability in C57BL/6 mouse at 3 mg/kg measured upto 24 hrs by LC-MS/MS analysis; assay type: ADME, organism-based; settings: in vivo
[28] = Half-life in C57BL/6 mouse at 1 mg/kg, iv or 3 mg/kg, po measured upto 24 hrs by LC-MS/MS analysis; assay type: ADME, organism-based; settings: in vivo
[29] = Volume of distribution at steady state in C57BL/6 mouse at 1 mg/kg, iv or 3 mg/kg, po measured upto 24 hrs by LC-MS/MS analysis; assay type: ADME, organism-based; settings: in vivo, read-out: Vdss
[30] = Clearance in C57BL/6 mouse at 1 mg/kg, iv or 3 mg/kg, po measured upto 24 hrs by LC-MS/MS analysis; assay type: ADME, organism-based; settings: in vivo
[31] = Plasma concentration in mouse xenografted with human RH30 cells at 30 mg/kg, po by LC-MS/MS analysis; assay type: ADME, organism-based; settings: in vivo
[32] = Plasma concentration in mouse xenografted with human RH41 cells at 30 mg/kg, po by LC-MS/MS analysis; assay type: ADME, organism-based; settings: in vivo
[33] = AUC in Crl:CD (SD) rat at 1 mg/kg, iv formulated in PEG200/NMP measured upto 24 hrs by LC-MS/MS analysis; assay type: ADME, organism-based; design: route intravenous, dose 1 mg/kg, time <=24; settings: in vivo
[34] = Lipophilicity, log D of the compound in 1-octanol at pH 7.4 by potentiometric titration method; assay type: physicochemical
[35] = Drug metabolism in rat feces assessed as reduction of aldehyde group measured after 20 hrs incubated under anaerobic condition measured by LC-MS analysis; assay type: ADME, tissue-based
[36] = Drug metabolism in rat blood assessed as reduction of aldehyde group measured at 1 uM within 1 hr by LC-MS/MS analysis; assay type: ADME, tissue-based; settings: read-out: Drug metabolism
[37] = AUC in Crl:CD (SD) rat at 3 mg/kg, po measured upto 24 hrs by LC-MS/MS analysis; assay type: ADME, organism-based; design: route oral, dose 3 mg/kg, time <=24; settings: in vivo
[38] = Metabolic stability in rat liver microsomes assessed as parent compound remaining incubated for 60 mins by HPLC/MS analysis; assay type: ADME, Microsome; settings: read-out: Stabilty
[39] = Drug metabolism in rat liver microsomes assessed as glucuronidation by measuring (2S,3S,4S,5R,6R)-6-((8-(5-cyanopyridin-2-ylcarbamoyl)-5,6,7,8-tetrahydro-1,8-naphthyridin-2-yl)methoxy)-3,4,5-trihydroxytetrahydro-2H-pyran-2-carboxylic acid metabolite formation incubated for 60 mins by HPLC/MS analysis; assay type: ADME, Microsome; settings: 1 h
[40] = Drug metabolism in rat liver microsomes assessed as C-hydroxylation of THN mediated M3 metabolite formation incubated for 60 mins by HPLC/MS analysis; assay type: ADME, Microsome; settings: 1 h
[41] = Drug metabolism in rat liver microsomes assessed as C-hydroxylation of THN mediated M2 metabolite formation incubated for 60 mins by HPLC/MS analysis; assay type: ADME, Microsome; settings: 1 h
[42] = Metabolic stability in rat plasma assessed as parent compound remaining at 1 uM incubated for 60 mins by HPLC/MS analysis; assay type: ADME, cell-free; settings: read-out: Stabilty
[43] = Metabolic stability in rat blood at 1 uM assessed as parent compound remaining incubated for 60 mins by HPLC/MS analysis; assay type: ADME, tissue-based; settings: read-out: Stabilty
[44] = Metabolic stability in rat liver S9 fraction at 1 uM assessed as parent compound remaining incubated for 60 mins by HPLC/MS analysis; assay type: ADME, subcellular; settings: read-out: Stabilty
[45] = Metabolic stability in rat liver S9 fraction assessed as parent compound remaining at 1 uM incubated for 60 mins in presence of NADPH by HPLC/MS analysis; assay type: ADME, subcellular; settings: read-out: Stabilty
[46] = Drug metabolism in human Caco-2 cells assessed as depletion of parent compound at 10 uM measured after 1 hr by LC-MS/MS analysis; assay type: ADME, cell-based; settings: read-out: Drug degradation
[47] = Drug metabolism in human Caco-2 cells assessed as oxidation of aldehyde group at 10 uM incubated from 30 to 120 mins by LC-MS/MS analysis; assay type: ADME, cell-based; settings: caco-2, 10 µM, time 30-120 min
[48] = Drug metabolism in human Caco-2 cells assessed as reduction of aldehyde group at 10 uM incubated from 30 to 120 mins by LC-MS/MS analysis; assay type: ADME, cell-based; settings: caco-2, 10 µM, time 30-120 min

- Drug absorption [1]: Active
- Tmax [2]: 2 h
- AUC at 24 h [3]: 5400 ng·h/mL
- AUC at 24 h [4]: 18700 ng·h/mL
- AUC at 24 h [5]: 2830 ng·h/mL
- AUC at 144 h [6]: 8250 ng·h/mL
- F [7]: 25%
- AUC [8]: 20.082 µM·h
- AUC [9]: 5.05 µM·h
- half-life [10]: 8.1 h
- Vd [11]: 1.1 L/kg
- half-life [12]: 5.2 h
- AUC at 24 h [13]: 4.54 µM·h
- Vd [14]: 1.4 L/kg
- clearance [15]: 8 mL/min/kg
- half-life [16]: 14.2 h
- Vd [17]: 7.2 L/kg
- clearance [18]: 21 mL/min/kg
- bioavailability ([19]; Crl:CD (SD)): 33%
- solubility thermodynamic at […] [20]: < 6 µM
- concentration at 336 h [21]: 500 nM
- AUC/dose [22]: 587 nM·h
- AUC/dose [23]: 1768 nM·h
SMILES: CC(C)Oc1cc(NC(=O)N2CCCc3cc(CN4CCCC4=O)c(C=O)nc32)ncc1C#N

- recovery at 2 h, 10 µM [24]: < 10%
- Drug metabolism [25]: Metabolite_Detected
- Drug metabolism [26]: Metabolite_Detected
- bioavailability [27]: 22%
- half-life [28]: 0.8 h
- Vd [29]: 1.6 L/kg
- clearance [30]: 77 mL/min/kg
- concentration [31]: < 40 nM
- concentration [32]: < 40 nM
SMILES: COCCNc1cc(NC(=O)N2CCCc3cc(CO)c(C=O)nc32)ncc1C#N

- half-life [16]: 1.3 h
- AUC [33]: 1.232 µM·h
- Vd [17]: 3.4 L/kg
- clearance [18]: 44 mL/min/kg
- recovery at 2 h, 10 µM [24]: < 10%
- Drug metabolism [25]: Metabolite_Detected
- Drug metabolism [26]: Metabolite_Detected
- logD [34]: 2.9
- Drug metabolism [35]: Metabolite_Detected
- metabolised at 1 h, 1 µM [36]: > 50%
- F ([19]; 3 mg/kg, 24 h): 4%
- AUC [37]: 0.054 µM·h
- remaining at 1 h [38]: 7%
- Drug metabolism [39]: Metabolite_Detected
- Drug metabolism [40]: Metabolite_Detected
- Drug metabolism [41]: Metabolite_Detected
- remaining at 1 h, 1 µM [42]: 100%
- remaining at 1 h, 1 µM [43]: 22%
- remaining at 1 h, 1 µM [44]: 61%
- remaining at 1 h, 1 µM [45]: 1%
SMILES: N#Cc1ccc(NC(=O)N2CCCc3ccc(C=O)nc32)nc1

- metabolised at 1 h, 10 µM [46]: 80%
- Drug metabolism [47]: Metabolite_Detected
- Drug metabolism [48]: Metabolite_Detected
- recovery at 2 h, 10 µM [24]: < 10%
- Drug metabolism [25]: Metabolite_Detected
- Drug metabolism [26]: Metabolite_Detected
SMILES: N#Cc1cnc(NC(=O)N2CCCc3ccc(C=O)nc32)nc1
